{"source": "ChEMBL document CHEMBL1126818", "about": "“Isosteric replacement in a series of -substituted monophosphonate calcium antagonists” (Bioorg Med Chem Lett, 1993)", "key": {"[1]": {"test": "The compound was tested in vitro for its ability to displace [3H]PN-200-110 from Calcium Channel in rat brain membranes.", "type": "cell membranes"}, "Rattus norvegicus": {"organism": "Rattus norvegicus", "test": "Inhibition of contractions induced by K+ depolarization in rat dorsal aorta", "type": "functional"}, "[2]": {"test": "The compound was tested in vitro for its ability to displace [3H]PN-200-110 from rat brain membranes", "type": "tissue-based, Membrane"}}}
{"compound": "CCCCOP(=O)(CC(CCOc1ccccc1)CP(=O)(OCCCC)OCCCC)OCCCC", "note": "[BELFOSDIL]", "values": [{"measurement": "Ki", "setting": "[1]", "result": 0.023, "unit": "µM"}, {"measurement": "Kb", "setting": "Rattus norvegicus", "result": 0.0005, "unit": "µM"}]}
{"compound": "CCCCOP(=O)(CC(CCc1ccccc1)OS(C)(=O)=O)OCCCC", "note": "(configuration not stated)", "values": [{"measurement": "Ki", "setting": "[2]", "result": "> 1", "unit": "µM"}, {"measurement": "Kb", "setting": "Rattus norvegicus", "result": "> 1", "unit": "µM"}]}
{"compound": "CCCCOP(=O)(CC(CCc1ccccc1)NS(=O)(=O)c1ccc(C)cc1)OCCCC", "note": "(configuration not stated)", "values": [{"measurement": "Ki", "setting": "[1]", "result": "> 1", "unit": "µM"}, {"measurement": "Kb", "setting": "Rattus norvegicus", "result": 0.348, "unit": "µM"}]}
{"compound": "CCCCCC(=O)OC(CCCc1ccccc1)CP(=O)(OCCCC)OCCCC", "note": "(configuration not stated)", "values": [{"measurement": "Ki", "setting": "[1]", "result": "> 1", "unit": "µM"}, {"measurement": "Kb", "setting": "Rattus norvegicus", "result": "> 1", "unit": "µM"}]}
{"compound": "CCCCOC(=O)NC(CCc1ccccc1)CP(=O)(OCCCC)OCCCC", "note": "(configuration not stated)", "values": [{"measurement": "Ki", "setting": "[1]", "result": "> 1", "unit": "µM"}, {"measurement": "Kb", "setting": "Rattus norvegicus", "result": 0.122, "unit": "µM"}]}
{"compound": "CCCCOC(=O)OC(CCc1ccccc1)CP(=O)(OCCCC)OCCCC", "note": "(configuration not stated)", "values": [{"measurement": "Ki", "setting": "[1]", "result": "> 1", "unit": "µM"}, {"measurement": "Kb", "setting": "Rattus norvegicus", "result": 0.255, "unit": "µM"}]}
{"compound": "CCCCOP(=O)(CC(CCc1ccccc1)OC(=O)C1CC1)OCCCC", "note": "(configuration not stated)", "values": [{"measurement": "Ki", "setting": "[1]", "result": "> 1", "unit": "µM"}, {"measurement": "Kb", "setting": "Rattus norvegicus", "result": 0.628, "unit": "µM"}]}
{"compound": "CCCCCC(=O)OC(CCc1ccccc1)CP(=O)(OCCCC)OCCCC", "note": "(configuration not stated)", "values": [{"measurement": "Ki", "setting": "[1]", "result": 0.051, "unit": "µM"}, {"measurement": "Kb", "setting": "Rattus norvegicus", "result": 0.0066, "unit": "µM"}]}
{"compound": "CCCCOP(=O)(CC(CCc1ccccc1)NP(=O)(OCC)OCC)OCCCC", "note": "(configuration not stated)", "values": [{"measurement": "Ki", "setting": "[1]", "result": "> 1", "unit": "µM"}, {"measurement": "Kb", "setting": "Rattus norvegicus", "result": 0.062, "unit": "µM"}]}
{"compound": "CCCCOP(=O)(CC(CCc1ccccc1)OC(=O)C(C)(C)C)OCCCC", "note": "(configuration not stated)", "values": [{"measurement": "Ki", "setting": "[1]", "result": "> 1", "unit": "µM"}, {"measurement": "Kb", "setting": "Rattus norvegicus", "result": 0.105, "unit": "µM"}]}
{"compound": "CCCCOP(=O)(CC(CCc1ccccc1)OC(C)=O)OCCCC", "note": "(configuration not stated)", "values": [{"measurement": "Ki", "setting": "[1]", "result": 0.055, "unit": "µM"}, {"measurement": "Kb", "setting": "Rattus norvegicus", "result": 0.025, "unit": "µM"}]}
{"compound": "CCCCOP(=O)(CC(CCc1ccccc1)OC(=O)c1ccccc1)OCCCC", "note": "(configuration not stated)", "values": [{"measurement": "Ki", "setting": "[1]", "result": "> 1", "unit": "µM"}, {"measurement": "Kb", "setting": "Rattus norvegicus", "result": 0.662, "unit": "µM"}]}
{"compound": "COC(=O)C1=C(C)NC(C)=C(C(=O)OC)C1c1ccccc1[N+](=O)[O-]", "note": "[NIFEDIPINE]", "values": [{"measurement": "Ki", "setting": "[1]", "result": 0.00053, "unit": "µM"}, {"measurement": "Kb", "setting": "Rattus norvegicus", "result": 0.0005, "unit": "µM"}]}
{"compound": "CCCCNC(=O)OC(CCc1ccccc1)CP(=O)(OCCCC)OCCCC", "note": "(configuration not stated)", "values": [{"measurement": "Ki", "setting": "[1]", "result": "> 1", "unit": "µM"}, {"measurement": "Kb", "setting": "Rattus norvegicus", "result": 0.038, "unit": "µM"}]}
{"compound": "CCCCNC(=O)NC(CCc1ccccc1)CP(=O)(OCCCC)OCCCC", "note": "(configuration not stated)", "values": [{"measurement": "Ki", "setting": "[1]", "result": "> 1", "unit": "µM"}, {"measurement": "Kb", "setting": "Rattus norvegicus", "result": 0.129, "unit": "µM"}]}
{"compound": "CCOP(=O)(Cc1ccc(-c2nc3ccccc3s2)cc1)OCC", "note": "[FOSTEDIL]", "values": [{"measurement": "Kb", "setting": "Rattus norvegicus", "result": "> 1", "unit": "µM"}]}
{"compound": "CCCCOP(=O)(CC(CCc1ccccc1)OP(=O)(OCCCC)OCCCC)OCCCC", "note": "(configuration not stated)", "values": [{"measurement": "Ki", "setting": "[1]", "result": 0.385, "unit": "µM"}, {"measurement": "Kb", "setting": "Rattus norvegicus", "result": 0.076, "unit": "µM"}]}
{"compound": "CCCCCC(=O)OC(Cc1ccccc1)CP(=O)(OCCCC)OCCCC", "note": "(configuration not stated)", "values": [{"measurement": "Ki", "setting": "[1]", "result": 0.56, "unit": "µM"}, {"measurement": "Kb", "setting": "Rattus norvegicus", "result": 0.211, "unit": "µM"}]}
{"compound": "CCCCOP(=O)(CC(CCc1ccccc1)OC(=O)C(F)(F)F)OCCCC", "note": "(configuration not stated)", "values": [{"measurement": "Ki", "setting": "[1]", "result": "> 1", "unit": "µM"}, {"measurement": "Kb", "setting": "Rattus norvegicus", "result": "> 1", "unit": "µM"}]}
